Assays:
NPC1 = assay: Protein expression (Western blot); assay type: cell-based, human; settings: NPC fibroblasts
Description: Cell lysates were prepared as previously described (31) and proteins in lysates were quantified using Bicinchoninic Acid (BCA) Protein Assay Kit (Sigma-Aldrich). Samples were heated at 65C for 10 min before resolved by SDS-PAGE under reducing conditions. Proteins were transferred to PVDF membranes (Bio-Rad Laboratory) using either Criterion Blotter (Bio-Rad Laboratory) or iBlot dry blotting devices (Invitrogen). For NPC1 and HMG-CoA reductase detection, rabbit polyclonal antibodies against NPC1 (Abcam, cat #ab36983, 1:2000) or HMG-CoA reductase (Millipore, cat #07-457, 1:1000) were used, respectively. A peroxidase-conjugated donkey anti-rabbit IgG (Santa Cruz) was used as secondary antibody at a 1:500 dilution.

[1] = system: Wolman disease fibroblasts; assay: Lysotracker staining assay; assay type: cell-based, human
[2] = system: Tay-Sachs disease fibroblasts; assay: Lysotracker staining assay; assay type: cell-based, human
[3] = system: baby hamster kidney cells; assay: Cholesterol efflux; assay type: cell-based
NPCD MSC cells = assay: Free cholesterol accumulation; assay type: cell-based, human
Description: The adipose mesenchymal stem cells (HMSC.AD-100, HMSC-NPC22 and HMSC-NPC23) were isolated from two NPC patients as well as one heath individual and provided by Celleng-tech (Coralville, Iowa). These cells were maintained in MSC expansion media (Celleng-tech, cat# HMSC.E.Media-450) supplemented with 10% FBS 100 unit/ml penicillin and 100 μg/ml streptomycin at 5% CO2, 37° C. For neural differentiation, cells were initially plated at 30% confluency (˜2500 cells/cm^2) using MSC expansion media. After 24 hours, MSC expansion media were withdrew. Cells were washed twice with Dulbecco's phosphate Buffer saline (Invitrogen) and incubated with neural differentiation media (Celleng-tech, cat# NEU.D.Media-450) supplemented with 10% FBS, 100 unit/ml penicillin and 100 μg/ml streptomycin at 5% CO2, 37° C. for additional 3 days.
MSC cells were seeded on coverslips on day 0 in MSC expansion medium. On day 1, cells were washed twice with warm PBS buffer and then incubated with MSC neuronal differentiation medium. On day 4, media were replaced with fresh neuronal differentiation medium. On day 6, cells were fixed with 3.2% paraformaldehyde in HBSS for 15 min. Immunocytochemistry for neuronal beta III tubulin and unesterified cholesterol (filipin staining) was performed as described. The coverslips were examined y a XXX microscope. […]

Wolman disease cells = assay: Amplex-red cholesterol assay (total cholesterol), combination therapy; assay type: cell-based, human
Text: (1) Amplex-red cholesterol assay. This biochemical assay (Invitrogen) uses cholesterol oxidase and a HRP-Amplex-re reporting system to measure the free cholesterol level in cells. With the addition of acid lipase to this assay, that hydrolyzes cholesterol ester to free cholesterol, the level of total cholesterol in cells including the cholesterol ester can be measured. This assay was used for detecting the total cholesterol level of in fibroblasts from patients with Wolman disease.

Cc1cc(O)cc2c1O[C@](C)(CCC[C@H](C)CCC[C@H](C)CCCC(C)C)CC2 [δ-tocopherol]
expression of NPC-1 protein (NPC1): not changed | expression of NPC-1 protein (NPC1; listed as Delta-tocopherol): did not change | size of enlarged lysosomes [1]: significantly reduced | size of enlarged lysosomes [2]: significantly reduced | cholesterol efflux [3]: significantly increased | accumulated free cholesterol (NPCD MSC cells): reduction of accumulated free cholesterol | cholesterol level, sole therapy (Wolman disease cells; 40 μM delta-tocopherol or 80 μM alpha-tocopherol alone): cholesterol reduction effect | cholesterol level, combination (Wolman disease cells; delta-tocopherol 10 μM combined with 10 μM MBCD): cholesterol reduction effect | interaction of delta-tocopherol and cyclodextrin (Wolman disease cells; sub-effective concentrations combined): synergetic or additive effect
